Results reported in patent US10526316B2, “Quinoxaline and pyridopyrazine derivatives as PI3Kβ inhibitors” (Janssen Pharmaceutica NV, priority 2015, dated 2020).
Where two headings read alike, the source gives them in different places.

Columns and labels:
[1] = tested on: Akt phosphorylated at Ser473 in PC-3 cells; assay: Cellular assay: phosphorylation of Akt at Ser473 in PC-3 cells (MSD ELISA); type: cell-based; settings: PC-3 cells, 60 min compound incubation, MSD ELISA, read-out: IC50 pAkt_S473
Procedure, shortened: (§1)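 Phospho-Akt in whole-cell lysates is quantified by electrochemiluminescent immunoassay using phospho-site capture and total-Akt detection antibodies.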

PI3Kδ = molecular target: T1, PI3Kδ (Homo sapiens, UniProt O00329); assay: Enzyme binding assay (KINOMEscan, DiscoveRx); settings: PIK3Cδ_h
T1 construct: purchased DiscoveRx Corporation, San Diego (contract service, KINOMEscan)
T1 sequence (O00329 1-1044): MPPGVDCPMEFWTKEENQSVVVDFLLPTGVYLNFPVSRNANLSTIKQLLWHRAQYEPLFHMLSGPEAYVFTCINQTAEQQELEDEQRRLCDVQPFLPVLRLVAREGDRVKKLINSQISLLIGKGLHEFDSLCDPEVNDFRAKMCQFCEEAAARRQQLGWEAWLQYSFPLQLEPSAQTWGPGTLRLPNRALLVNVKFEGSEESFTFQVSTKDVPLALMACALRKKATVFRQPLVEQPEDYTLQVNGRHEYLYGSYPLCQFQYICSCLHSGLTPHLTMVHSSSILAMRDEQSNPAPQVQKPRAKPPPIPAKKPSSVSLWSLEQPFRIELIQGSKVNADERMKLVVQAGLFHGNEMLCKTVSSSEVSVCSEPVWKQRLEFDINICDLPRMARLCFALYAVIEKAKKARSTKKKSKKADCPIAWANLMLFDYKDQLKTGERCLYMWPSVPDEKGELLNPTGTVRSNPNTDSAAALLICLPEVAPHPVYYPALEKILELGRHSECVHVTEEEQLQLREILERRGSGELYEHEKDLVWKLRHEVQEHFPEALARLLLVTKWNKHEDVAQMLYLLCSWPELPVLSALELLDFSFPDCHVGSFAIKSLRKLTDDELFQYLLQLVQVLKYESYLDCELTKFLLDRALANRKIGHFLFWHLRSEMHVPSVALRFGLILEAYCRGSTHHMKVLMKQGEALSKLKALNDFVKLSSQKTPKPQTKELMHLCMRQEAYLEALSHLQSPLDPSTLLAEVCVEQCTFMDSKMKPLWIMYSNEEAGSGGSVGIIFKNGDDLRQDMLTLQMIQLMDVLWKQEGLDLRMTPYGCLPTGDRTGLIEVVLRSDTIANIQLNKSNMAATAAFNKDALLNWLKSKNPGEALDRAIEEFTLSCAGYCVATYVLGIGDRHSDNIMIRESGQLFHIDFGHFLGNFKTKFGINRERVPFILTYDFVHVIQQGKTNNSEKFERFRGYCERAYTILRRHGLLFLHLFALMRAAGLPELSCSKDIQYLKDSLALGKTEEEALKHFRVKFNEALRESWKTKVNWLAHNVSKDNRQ
Procedure, shortened: (§2)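 Uses KINOMEscan technology to determine binding affinity toward the kinase enzymes.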

kinase enzymes [2] = molecular target: T2, kinase enzymes (Homo sapiens, UniProt P42336); assay: Enzyme binding assay (KINOMEscan, DiscoveRx), further kinases of Table A; settings: PIK3Cα_h
T2 construct: purchased DiscoveRx Corporation, San Diego (contract service, KINOMEscan)
T2 sequence (P42336 whole entry): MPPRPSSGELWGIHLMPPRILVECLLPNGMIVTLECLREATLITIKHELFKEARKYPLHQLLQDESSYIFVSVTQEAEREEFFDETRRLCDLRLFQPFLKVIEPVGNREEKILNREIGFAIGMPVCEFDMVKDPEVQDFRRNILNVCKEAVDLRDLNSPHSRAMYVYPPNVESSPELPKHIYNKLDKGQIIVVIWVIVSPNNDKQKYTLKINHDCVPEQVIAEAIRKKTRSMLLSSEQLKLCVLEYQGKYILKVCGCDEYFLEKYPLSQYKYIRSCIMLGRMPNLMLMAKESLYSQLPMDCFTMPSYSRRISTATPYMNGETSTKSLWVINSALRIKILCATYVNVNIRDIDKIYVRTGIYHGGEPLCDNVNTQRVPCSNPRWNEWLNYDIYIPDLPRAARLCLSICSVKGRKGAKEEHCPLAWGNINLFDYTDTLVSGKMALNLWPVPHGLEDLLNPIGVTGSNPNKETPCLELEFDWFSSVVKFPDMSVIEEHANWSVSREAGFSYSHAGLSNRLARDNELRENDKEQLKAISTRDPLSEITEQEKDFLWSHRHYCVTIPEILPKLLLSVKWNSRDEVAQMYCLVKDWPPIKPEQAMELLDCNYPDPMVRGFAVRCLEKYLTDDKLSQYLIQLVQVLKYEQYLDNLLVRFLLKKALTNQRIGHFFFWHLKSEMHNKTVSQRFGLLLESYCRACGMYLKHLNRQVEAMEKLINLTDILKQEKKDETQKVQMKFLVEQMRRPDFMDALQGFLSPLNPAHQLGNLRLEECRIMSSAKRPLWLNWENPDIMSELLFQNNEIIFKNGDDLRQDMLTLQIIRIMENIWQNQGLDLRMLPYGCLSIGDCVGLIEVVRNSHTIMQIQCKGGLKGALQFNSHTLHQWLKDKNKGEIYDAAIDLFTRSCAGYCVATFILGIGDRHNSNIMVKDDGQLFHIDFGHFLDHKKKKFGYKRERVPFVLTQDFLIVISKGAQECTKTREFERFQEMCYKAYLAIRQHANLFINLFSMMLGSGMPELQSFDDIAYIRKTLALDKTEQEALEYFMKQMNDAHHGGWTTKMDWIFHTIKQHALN
Procedure, shortened: as §2

kinase enzymes [3] = molecular target: T3, kinase enzymes (Homo sapiens, UniProt P48736); assay: as above; settings: PIK3Cγ_h
T3 construct: purchased DiscoveRx Corporation, San Diego (contract service, KINOMEscan)
T3 sequence (P48736 whole entry): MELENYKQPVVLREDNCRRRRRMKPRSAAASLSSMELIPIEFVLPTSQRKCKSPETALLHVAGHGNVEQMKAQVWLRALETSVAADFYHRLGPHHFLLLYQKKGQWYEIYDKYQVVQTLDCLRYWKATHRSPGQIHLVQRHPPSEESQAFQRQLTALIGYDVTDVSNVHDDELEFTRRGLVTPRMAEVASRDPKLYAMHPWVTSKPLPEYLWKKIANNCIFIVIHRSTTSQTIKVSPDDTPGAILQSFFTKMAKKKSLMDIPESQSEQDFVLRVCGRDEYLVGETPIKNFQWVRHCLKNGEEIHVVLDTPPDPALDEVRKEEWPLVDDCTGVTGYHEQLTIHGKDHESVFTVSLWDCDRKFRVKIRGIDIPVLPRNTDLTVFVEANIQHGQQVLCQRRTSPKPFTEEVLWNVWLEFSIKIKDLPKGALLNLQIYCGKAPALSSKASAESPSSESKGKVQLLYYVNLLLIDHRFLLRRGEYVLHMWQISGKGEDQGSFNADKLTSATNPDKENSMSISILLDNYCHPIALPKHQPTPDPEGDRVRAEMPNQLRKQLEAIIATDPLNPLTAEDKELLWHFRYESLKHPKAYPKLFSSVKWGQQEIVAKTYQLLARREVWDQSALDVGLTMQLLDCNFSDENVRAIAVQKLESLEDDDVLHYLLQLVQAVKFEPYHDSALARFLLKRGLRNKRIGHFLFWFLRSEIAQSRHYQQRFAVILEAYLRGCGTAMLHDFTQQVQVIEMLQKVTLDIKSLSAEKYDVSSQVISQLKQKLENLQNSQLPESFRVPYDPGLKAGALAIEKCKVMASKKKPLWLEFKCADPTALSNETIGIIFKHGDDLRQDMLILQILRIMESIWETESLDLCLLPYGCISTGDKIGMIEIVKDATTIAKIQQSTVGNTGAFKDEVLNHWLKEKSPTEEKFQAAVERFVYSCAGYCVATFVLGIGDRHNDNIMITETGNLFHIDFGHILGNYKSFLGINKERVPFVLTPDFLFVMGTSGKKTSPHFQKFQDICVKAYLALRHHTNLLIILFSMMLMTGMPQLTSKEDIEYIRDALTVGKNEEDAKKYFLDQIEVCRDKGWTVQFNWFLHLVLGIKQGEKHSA
Procedure, shortened: as §2

kinase enzymes [4] = molecular target: T4, kinase enzymes (Homo sapiens, UniProt P42345); assay: as above; settings: MTOR_h
T4 construct: purchased DiscoveRx Corporation, San Diego (contract service, KINOMEscan)
Procedure, shortened: as §2

PI3Kβ = molecular target: T5, PI3Kβ (Homo sapiens, UniProt P42338); assay: Enzyme binding assay (KINOMEscan, DiscoveRx); settings: PIK3Cβ_h, read-out: Kd PIK3Cβ_h
T5 construct: purchased DiscoveRx Corporation, San Diego (contract service, KINOMEscan)
T5 sequence (P42338 whole entry): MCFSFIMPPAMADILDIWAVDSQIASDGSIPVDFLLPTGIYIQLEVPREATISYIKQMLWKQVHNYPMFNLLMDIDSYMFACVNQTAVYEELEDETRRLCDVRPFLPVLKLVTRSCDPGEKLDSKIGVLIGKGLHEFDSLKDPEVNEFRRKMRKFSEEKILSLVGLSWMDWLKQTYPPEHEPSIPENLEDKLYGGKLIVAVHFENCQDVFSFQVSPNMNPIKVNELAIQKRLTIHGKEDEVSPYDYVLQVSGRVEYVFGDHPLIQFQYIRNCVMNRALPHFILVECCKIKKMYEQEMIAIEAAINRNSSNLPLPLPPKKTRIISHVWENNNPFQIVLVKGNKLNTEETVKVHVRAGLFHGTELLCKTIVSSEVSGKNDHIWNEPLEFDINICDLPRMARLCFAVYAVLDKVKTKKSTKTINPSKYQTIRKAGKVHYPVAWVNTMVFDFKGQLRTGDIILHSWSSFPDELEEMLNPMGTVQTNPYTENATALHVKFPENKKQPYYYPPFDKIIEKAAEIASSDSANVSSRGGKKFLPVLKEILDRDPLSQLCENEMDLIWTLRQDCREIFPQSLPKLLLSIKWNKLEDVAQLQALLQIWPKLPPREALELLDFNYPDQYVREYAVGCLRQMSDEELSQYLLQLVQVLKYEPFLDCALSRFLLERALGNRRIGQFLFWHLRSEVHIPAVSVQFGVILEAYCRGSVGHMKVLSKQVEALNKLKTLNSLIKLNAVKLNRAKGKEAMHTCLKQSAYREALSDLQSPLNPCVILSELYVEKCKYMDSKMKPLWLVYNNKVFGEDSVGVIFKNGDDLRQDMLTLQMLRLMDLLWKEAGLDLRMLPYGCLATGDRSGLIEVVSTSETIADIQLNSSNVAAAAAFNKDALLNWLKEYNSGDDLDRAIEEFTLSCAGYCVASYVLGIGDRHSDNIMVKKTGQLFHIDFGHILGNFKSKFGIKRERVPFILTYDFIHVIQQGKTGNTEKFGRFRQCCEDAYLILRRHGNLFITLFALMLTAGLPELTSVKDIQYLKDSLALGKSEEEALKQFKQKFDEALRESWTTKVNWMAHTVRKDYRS
Procedure, shortened: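 Using the KINOMEscan format, the enzyme binding affinity of each compound was determined. Each value is the inhibitor binding constant, Kd (nM).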

[5] = tested on: Akt phosphorylated at Thr308 in PC-3 cells; assay: Cellular assay: phosphorylation of Akt at Thr308 in PC-3 cells (MSD ELISA); type: cell-based; settings: PC-3 cells, 60 min compound incubation, MSD ELISA, read-out: IC50 pAkt_Thr308
Procedure, shortened: as §1

Row | Structure (SMILES) | IC50 [1] [nM] | Kd (PI3Kδ) [nM] | Kd (kinase enzymes [2]) [nM] | Kd (kinase enzymes [3]) [nM] | Kd (kinase enzymes [4]) [nM] | Kd (PI3Kβ) [nM] | IC50 [5] [nM] | IC50 ([1]; Homo sapiens, PC-3, 1 h) [nM] | IC50 ([5]; Homo sapiens, PC-3, 1 h) [nM]
1 | CC(Oc1ccc(Cl)c(F)c1)c1cc(C(=O)N(C)CCN(C)C)cc2ncc(N3CCOCC3)nc12 (single isomer, unassigned) [Compound 313b] | > 513 | 5490 | 14500 | > 30200 | > 30200 | 302 | > 513 | – | –
2 | CC(C)NCCNC(=O)c1cc(C(C)Oc2cccc(F)c2)c2nc(N3CCOCC3)cnc2c1 (single isomer, unassigned) [Compound 314a] | ~407 | 6030 | 17400 | 30200 | 19100 | 417 | > 513 | – | –
3 | CNCCN(C)C(=O)c1cc(C(C)Nc2cc(F)c(F)c(F)c2)c2nc(N3CCOCC3)cnc2c1 (single isomer, unassigned) [Compound 335a] | 5 | 33 | 466 | 1220 | 18600 | 0.2 | 2 | – | –
4 | CC(Oc1cccc(F)c1)c1cc(C(=O)N(C)C)cc2ncc(N3CCOCC3)nc12 (single isomer, unassigned) [Compound 339a] | > 513 | 2090 | 4570 | 10700 | > 30200 | 112 | 407 | – | –
5 | CC(Oc1cccc(F)c1)c1cc(C(=O)N(C)C)cc2ncc(N3CCOCC3)nc12 (single isomer, unassigned) [Compound 339b] | > 513 | 1950 | 759 | 2190 | 6460 | 316 | > 513 | – | –
6 | CNCCNC(=O)c1cc(C(C)Oc2ccc(F)c(F)c2)c2nc(N3CCOCC3)cnc2c1 (single isomer, unassigned) [Compound 344b] | > 513 | 3800 | 8130 | 14100 | > 30200 | 166 | ~513 | – | –
7 | CNCCOCCN(C)C(=O)c1cc(C(C)Nc2ccc(F)c(F)c2)c2nc(N3CCOCC3)cnc2c1 (single isomer, unassigned) [Compound 345b] | > 513 | 22900 | > 30200 | > 30200 | > 30200 | 724 | > 513 | – | –
8 | CC(Nc1ccc(F)c(F)c1)c1cc(C(=O)N2CCN3CCC[C@@H]3C2)cc2ncc(N3CCOCC3)nc12 (single isomer, unassigned) [Compound 347b] | 85 | 355 | 3890 | 25700 | > 30200 | 2 | 60 | – | –
9 | CC(Nc1ccc(F)c(F)c1)c1cc(C(=O)NCC(C)(C)O)cc2ncc(N3CCOCC3)nc12 (single isomer, unassigned) [Compound 348b] | > 513 | 25700 | > 30200 | > 30200 | > 30200 | 1320 | > 513 | – | –
10 | CC(Nc1ccc(F)c(F)c1)c1cc(C(=O)N(C)CCN(C)C)cc2ncc(N3CCOCC3)nc12 (single isomer, unassigned) [Compound 349b] | 479 | 2750 | 4680 | 25700 | > 30200 | 14 | 302 | – | –
11 | CC(C)NCCNC(=O)c1cc(C(C)Nc2ccc(F)c(F)c2)c2nc(N3CCOCC3)cnc2c1 (single isomer, unassigned) [Compound 364a] | 35 | 204 | 2460 | 6920 | > 30200 | 1 | 26 | – | –
12 | CC(C)NCCNC(=O)c1cc(C(C)Nc2ccc(F)c(F)c2)c2nc(N3CCOCC3)cnc2c1 (single isomer, unassigned) [Compound 364b] | > 513 | 7760 | 7080 | 8130 | > 30200 | 372 | > 513 | – | –
13 | CN[C@H]1CCN(C(=O)c2cc(C(C)Nc3ccc(F)c(F)c3)c3nc(N4CCOCC4)cnc3c2)C1 (single isomer, unassigned) [Compound 365a] | – | 204 | 5250 | 10200 | > 30200 | 1 | – | 52 | 35
14 | Cc1c(F)cccc1CN(C)c1cc(C(=O)N2CCNC(C(F)(F)F)C2)cc2ncc(N3CCOCC3)nc12 (single isomer, unassigned) [Compound 367a] | – | 1150 | 4070 | 23400 | 29500 | 63 | – | > 513 | > 513
15 | Cc1c(F)cccc1CN(C)c1cc(C(=O)N2CCNC(C(F)(F)F)C2)cc2ncc(N3CCOCC3)nc12 (single isomer, unassigned) [Compound 367b] | > 513 | 427 | 2460 | > 30200 | 28200 | 35 | > 513 | – | –
16 | CC(Oc1ccc(F)c(F)c1)c1cc(C(=O)N2CCN3CCC[C@H]3C2)cc2ncc(N3CCOCC3)nc12 (single isomer, unassigned) [Compound 369a] | – | 525 | 7240 | > 30200 | 25100 | 20 | 251 | ~363 | –
17 | CNCCNC(=O)c1cc(C(C)Oc2ccc(Cl)c(F)c2)c2nc(N3CCOCC3)cnc2c1 (single isomer, unassigned) [Compound 380b] | – | 1200 | 3800 | 8910 | 18600 | 5 | – | > 513 | > 513
18 | CC(Nc1cc(F)c(F)c(F)c1)c1cc(C(=O)N2CCCN(C(C)C)CC2)cc2ncc(N3CCOCC3)nc12 (single isomer, unassigned) [Compound 388b] | – | 200 | 2190 | 2400 | > 30200 | 3 | – | 38 | 19
19 | CN(C)C(=O)c1cc(N2CCC2c2ccc(F)cc2)c2nc(N3CCOCC3)cnc2c1 (single isomer, unassigned) [Compound 397b] | ~513 | 871 | 1860 | 12300 | > 30200 | 25 | > 513 | – | –
20 | CC(Oc1cc(F)c(F)c(F)c1)c1cc(C(=O)N(C)C2CCNC2)cc2ncc(N3CCOCC3)nc12 (single isomer, unassigned) [Compound 404a] | – | > 30200 | > 30200 | > 30200 | > 30200 | 1510 | – | > 513 | > 513
21 | CC(Oc1cc(F)c(F)c(F)c1)c1cc(C(=O)N(C)C2CCNC2)cc2ncc(N3CCOCC3)nc12 (single isomer, unassigned) [Compound 404b] | 398 | 1070 | 5250 | 16600 | > 30200 | 1 | 295 | – | –
22 | CN[C@H]1CCN(C(=O)c2cc(C(C)Oc3cc(F)c(F)c(F)c3)c3nc(N4CCOCC4)cnc3c2)C1 (single isomer, unassigned) [Compound 405a] | > 513 | 7410 | > 30200 | > 30200 | > 30200 | 501 | > 513 | – | –
